Converted amounts (≈) assume the structure as drawn. Where two headings read alike, the source gives them in different places.
Key:
[1] = system: store-operated calcium entry (SOCE) in Jurkat T cells; assay: SOCE inhibition, Fura-2 Ca2+ bioassay, thapsigargin-induced, Jurkat cells; type: cell-based, human; settings: for IC50: Homo sapiens; for Combinatory effect on SOCE inhibition when paired with CBGA: isobolographic analysis, pairs expected to inhibit 50%
[2] = system: store-operated calcium entry (SOCE) in U937 monocytes; assay: SOCE inhibition, Fura-2 Ca2+ bioassay, thapsigargin-induced, U937 cells; type: cell-based, human; settings: for IC50: Homo sapiens
[3] = system: store-operated calcium entry (SOCE) in Luva human mast cells; assay: SOCE inhibition, Fura-2 Ca2+ bioassay, thapsigargin-induced, Luva cells; type: cell-based; settings: for IC50: Homo sapiens, Mast cell, read-out: IC50 SOCE Luva
[4] = system: store-operated calcium entry (SOCE) in RBL-2H3 rat mast cells; assay: SOCE inhibition, Fura-2 Ca2+ bioassay, thapsigargin-induced, RBL-2H3 cells; type: cell-based; settings: for IC50: Rattus norvegicus
[5] = system: store-operated calcium entry (SOCE) in HEK293 cells; assay: SOCE inhibition, Fura-2 Ca2+ bioassay, thapsigargin-induced, HEK293 cells; type: cell-based, human; settings: for IC50: Homo sapiens; for Inhibitory effect in immune cells compared with non-immune HEK293 cells: Jurkat vs HEK293 screening, 10 μM
[6] = system: store-operated calcium entry (SOCE) in THP-1 cells; assay: SOCE inhibition, combinatory (isobolographic) analysis, THP-1 cells; type: cell-based, human; settings: for Combinatory effect on SOCE inhibition when paired with CBGA: THP-1 cells, isobolographic analysis, pairs expected to inhibit 50%
Procedure: Bar graphs shown in FIGS. 10A-10Z and 10BB display SOCE amplitudes calculated from area under the curve (AUC) of the SOCE signals and normalized to SOCE in the presence of gadolinium. Combinatory effects were assessed using an isobolographic analysis approach, where CBGA was paired with another cannabinoid using concentrations of CBGA corresponding to 50%, 40%, 30%, 20%, 10%, and 0% inhibition (as derived from the IC50 curves of FIGS. 9A-9P) and combined with concentrations of the paired cannabinoid, so that each combination would be expected to inhibit 50% of the Ca^2+ signal (e.g., the CBGA concentration causing 50% inhibition was tested alone without the other cannabinoid, the CBGA concentration expected to block 40% of the signal was combined with the concentration of the other cannabinoid expected to inhibit 10%, the CBGA concentration expected to block 30% of the signal was combined with the concentration of the other cannabinoid expected to inhibit 20%, and so on). Simple additivity of cannabinoid pairs would be expected to inhibit the Ca^2+ signal by 50%. All the data in these experiments represent an average of 3 independent runs and the values are graphed as mean values±SEM.

[7] = system: store-operated calcium entry (SOCE) in THP-1 cells; assay: as above; type: cell-based, human; settings: 10 μM cannabinoid plus 2.2 μM CBGA
[8] = Jurkat, read-out: IC50 SOCE Jurkat, Table 5, individual cannabinoids, Jurkat
[9] = U-937, read-out: IC50 SOCE U937, Table 5, individual cannabinoids, U937
[10] = RBL-2H3, read-out: IC50 SOCE RBL-2H3, Table 5, individual cannabinoids, RBL-2H3
[11] = HEK293, read-out: IC50 SOCE HEK-293, Table 5, individual cannabinoids, HEK-293
[12] = Jurkat, read-out: IC50 SOCE Jurkat
[13] = U-937, read-out: IC50 SOCE U937
[14] = RBL-2H3, read-out: IC50 SOCE RBL-2H3
[15] = HEK293, read-out: IC50 SOCE HEK-293

| Structure (SMILES) | IC50 [1, 8] [µg/mL] | Combinatory effect on SOCE inhibition when paired with CBGA ([1]; Jurkat cells) | IC50 [2, 9] [µg/mL] | IC50 [3] [µg/mL] | IC50 [4, 10] [µg/mL] | IC50 [5, 11] [µg/mL] | further results |
| --- | --- | --- | --- | --- | --- | --- | --- |
| CCCCCc1cc2c(c(O)c1C(=O)O)-c1cc(C)ccc1C(C)(C)O2 [CBNA, 1-hydroxy-6,6,9-trimethyl-3-pentyl-6H-benzo[c]chromene-2-carboxylic acid] | 0.99 (≈ 2.79 µM) | Simple additive behavior | 19.2 (≈ 54.1 µM) | 7.25 (≈ 20.5 µM) | > 50 | 22.5 (≈ 63.5 µM) | Combinatory effect on SOCE inhibition when paired with CBGA [6]: sub-additive combinatory effects |
| CCCCCc1cc(O)c2c(c1)OC(C)(C)[C@@H]1CC=C(C)C[C@@H]21 [Δ8-THC, (6aR,10aR)-6,6,9-trimethyl-3-pentyl-6a,7,10,10a-tetrahydro-6H-benzo[c]chromen-1-ol] | 14.2 (≈ 45.1 µM) | inhibit less than predicted | > 50 | > 50 | 39.7 (≈ 126 µM) | > 50 | IC50 ([6]; Homo sapiens, THP-1, read-out: SOCE IC50): > 30 µM; Combinatory effect when paired with 2.2 μM CBGA [7]: sub-additive |
| C=C(C)[C@@H]1CCC(C)=C[C@H]1c1c(O)cc(CCC)cc1O [CBDV, (1′R,2′R)-5′-methyl-2′-(prop-1-en-2-yl)-4-propyl-1′,2′,3′,4′-tetrahydro-[1,1′-biphenyl]-2,6-diol] | 6 (≈ 20.9 µM) | inhibit less than predicted | 17.5 (≈ 61.1 µM) | > 50 | 0.17 (≈ 0.594 µM) | 30.2 (≈ 105 µM) | Inhibitory effect in immune cells compared with non-immune HEK293 cells [5]: selective |
| CCCCCc1cc(O)c2c(c1)O[C@]1(C)CCC3[C@@H]1[C@@H]2C3(C)C (stereo partly drawn) [CBL, (1aS,1a1R,3aR,8bR)-1,1,3a-trimethyl-6-pentyl-1a,1a1,2,3,3a,8b-hexahydro-1H-4-oxabenzo[f]cyclobuta[cd] inden-8-ol] | > 50 | Simple additive behavior | > 50 | > 50 | > 50 | > 50 | – |
| CCCCCc1cc(OC)c2c(c1)OC(C)(C)c1ccc(C)cc1-2 [CBNM, 1-methoxy-6,6,9-trimethyl-3-pentyl-6H-benzo[c]chromene] | > 50 | – | > 50 | > 50 | > 50 | > 50 | – |
| C=C(C)c1ccc(C)cc1-c1c(O)cc(CCCCC)cc1O [CBND, 5′-methyl-4-pentyl-2′-(prop-1-en-2-yl)-[1,1′-biphenyl]-2,6-diol] | 6.7 (≈ 21.6 µM) | Simple additive behavior | 24 (≈ 77.3 µM) | > 50 | 19 (≈ 61.2 µM) | 32.8 (≈ 106 µM) | – |
| CCCCCc1cc(O)c2c(c1)OC(C)(CCC=C(C)C)C=C2 (stereo not shown) [CBC, 2-methyl-2-(4-methylpent-3-en-1-yl)-7-pentyl-2H-chromen-5-ol] | – | – | – | – | – | – | IC50 SOCE Jurkat ([1]; Table 5, individual cannabinoids, Jurkat): 13.06 µg/mL (≈ 41.5 µM); IC50 SOCE U937 ([2]; Table 5, individual cannabinoids, U937): 40.8 µg/mL (≈ 130 µM); IC50 SOCE Luva ([3]; Table 5, individual cannabinoids, Luva): >50 µg/mL; IC50 SOCE RBL-2H3 ([4]; Table 5, individual cannabinoids, RBL-2H3): 26.8 µg/mL (≈ 85.2 µM); IC50 SOCE HEK-293 ([5]; Table 5, individual cannabinoids, HEK-293): 31.6 µg/mL (≈ 100 µM) |
| CCCCCc1cc2c(c(O)c1C(=O)O)C=C[C@@](C)(CCC=C(C)C)O2 [CBCA, (R)-5-hydroxy-2-methyl-2-(4-methylpent-3-en-1-yl)-7-pentyl-2H-chromene-6-carboxylic acid] | 1.13 (≈ 3.15 µM) | Simple additive behavior | > 50 | 29.1 (≈ 81.3 µM) | > 50 | > 50 | – |
| CCCc1cc2c(c(O)c1C(=O)O)[C@@H]1C=C(C)CC[C@H]1C(C)(C)O2 [THCVA, (6aR,10aR)-1-hydroxy-6,6,9-trimethyl-3-propyl-6a,7,8,10a-tetrahydro-6H-benzo[c]chromene-2-carboxylic acid] | 0.633 (≈ 1.92 µM) | stronger than predicted inhibitions | 20.2 (≈ 61 µM) | 9.43 (≈ 28.5 µM) | 20.2 (≈ 61.2 µM) | 21.3 (≈ 64.6 µM) | Combinatory effect on SOCE inhibition when paired with CBGA [6]: sub-additive combinatory effects |
| CCCCCc1cc(O)c2c(c1)OC(C)(C)[C@@H]1CCC(C)=C[C@@H]21 [Δ9-THC, (6aR,10aR)-6,6,9-trimethyl-3-pentyl-6a,7,8,10a-tetrahydro-6H-benzo[c]chromen-1-ol] | > 50 | – | > 50 | > 50 | 0.97 (≈ 3.08 µM) | > 50 | Effect on SOCE (Ca2+ signals), pure compounds ([1]; Jurkat cells, compounds at 10 μM, 1 μM thapsigargin): low to no effects; IC50 on SOCE relative to acidic variations ([1]; Jurkat cells, dose response 0 to 30 μM): higher IC50 than their acidic variations |
| CCCCCc1cc2c(c(O)c1C(=O)O)[C@@H]1C=C(C)CC[C@H]1C(C)(C)O2 [THCA, (6aR,10aR)-1-hydroxy-6,6,9-trimethyl-3-pentyl-6a,7,8,10a-tetrahydro-6H-benzo[c]chromene-2-carboxylic acid] | 2.23 (≈ 6.22 µM) | Simple additive behavior | 8.1 (≈ 22.6 µM) | 10.4 (≈ 29 µM) | 0.57 (≈ 1.59 µM) | 17.5 (≈ 48.9 µM) | Combinatory effect on SOCE inhibition when paired with CBGA [6]: sub-additive combinatory effects |
| CCCCCc1cc2c(c(O)c1C(=O)O)[C@@H]1[C@H]3C(CC[C@@]3(C)O2)C1(C)C (stereo partly drawn) [CBLA, (1aS,1a1R,3aR,8bR)-8-hydroxy-1,1,3a-trimethyl-6-pentyl-1a,1a1,2,3,3a,8b-hexahydro-1H-4-oxabenzo[f]cyclobuta[cd] indene-7-carboxylic acid] | – | inhibit less than predicted | – | 12.4 (≈ 34.5 µM) | – | – | IC50 [1, 12]: 9.29 µg/mL (≈ 25.9 µM); IC50 [2, 13]: 28.3 µg/mL (≈ 79 µM); IC50 [4, 14]: 20.9 µg/mL (≈ 58.2 µM); IC50 [5, 15]: > 50 µg/mL |
| C=C(C)[C@@H]1CCC(C)=C[C@H]1c1c(O)cc(CCCCC)c(C(=O)O)c1O [CBDA, (1′R,2′R)-2,6-dihydroxy-5′-methyl-4-pentyl-2′-(prop-1-en-2-yl)-1′,2′,3′,4′-tetrahydro-[1,1′-biphenyl]-3-carboxylic acid] | 4.07 (≈ 11.4 µM) | inhibit less than predicted | 5.83 (≈ 16.3 µM) | 5.17 (≈ 14.4 µM) | 2.4 (≈ 6.69 µM) | 16.1 (≈ 45 µM) | Inhibitory effect in immune cells compared with non-immune HEK293 cells [5]: selective; Combinatory effect on SOCE inhibition when paired with CBGA [6]: sub-additive combinatory effects |
| CCCCCc1cc(O)c2c(c1)OC(C)(C)[C@@H]1CCC(C(=O)O)=C[C@@H]21 [11-nor-COOH-Δ9-THC, (6aR,10aR)-1-hydroxy-6,6-dimethyl-3-pentyl-6a,7,8,10a-tetrahydro-6H-benzo[c]chromene-9-carboxylic acid] | – | – | – | – | – | – | Inhibitory effect in immune cells compared with non-immune HEK293 cells [5]: selective |
| C=C(C)[C@@H]1CCC(C)=C[C@H]1c1c(O)cc(CCC)c(C(=O)O)c1O [CBDVA, (1′R,2′R)-2,6-dihydroxy-5′-methyl-2′-(prop-1-en-2-yl)-4-propyl-1′,2′,3′,4′-tetrahydro-[1,1′-biphenyl]-3-carboxylic acid] | – | inhibit less than predicted | – | 8.45 (≈ 25.6 µM) | – | – | IC50 [1, 12]: 11.3 µg/mL (≈ 34.2 µM); IC50 [2, 13]: 10.6 µg/mL (≈ 32.2 µM); IC50 [4, 14]: 11.3 µg/mL (≈ 34.3 µM); IC50 [5, 15]: 23.5 µg/mL (≈ 71.2 µM) |
| CCCc1cc(O)c2c(c1)OC(C)(C)[C@@H]1CCC(C)=C[C@@H]21 [THCV, (6aR,10aR)-6,6,9-trimethyl-3-propyl-6a,7,8,10a-tetrahydro-6H-benzo[c]chromen-1-ol] | 10.7 (≈ 37.5 µM) | stronger than predicted inhibitions | > 50 | > 50 | > 50 | > 50 | Inhibitory effect in immune cells compared with non-immune HEK293 cells [5]: selective |
| CCCc1cc(O)c(C/C=C(\C)CCC=C(C)C)c(O)c1C(=O)O [CBGVA, (E)-3-(3,7-dimethylocta-2,6-dien-1-yl)-2,4-dihydroxy-6-propylbenzoic acid] | 1.15 (≈ 3.46 µM) | Simple additive behavior | 2.86 (≈ 8.6 µM) | 2.6 (≈ 7.82 µM) | 2.53 (≈ 7.61 µM) | 4.15 (≈ 12.5 µM) | Combinatory effect on SOCE inhibition when paired with CBGA [6]: sub-additive combinatory effects |
